Experimental data: patent US20210380695A1, “STING AGONIST COMBINATION TREATMENTS WITH IMMUNE CHECKPOINT INHIBITORS” (ImmuneSensor Therapeutics, Inc., priority 2020, published 2021)
Read-outs that look alike come from different tables or passages of the source.

How the values were obtained:
B16F10 melanoma cells [1] = assay: B16F10 melanoma tumor model in C57BL6 mice: Compound A with anti-CTLA4 and/or anti-PD-L1 antibody; format: in vivo
Experimental: FIG. 2, panels A and B show the effect of a triple combination of Compound A (I.T.), PD-L1 antibody (I.P.), and anti-CTLA4 antibody (I.P.). Groups of C57BL6 mice (n=5) bearing B16F10 tumors were treated as indicated on day 6, 10, and 14 after tumor implantation. […] Data are shown as mean±SEM.
In the same set of experiments, the combination of 0.3 μg of Compound A (I.T.) and 200 μg of anti-PD-L1 antibody (I.P.) was also tested with and without the combination of 200 μg of anti-CTLA4 antibody (I.P.).

STING pathway = assay: Plasma cytokine and chemokine levels after subcutaneous Compound A in cynomolgus monkeys; format: in vivo; conditions: for plasma levels of IL-6: 3 hours and 6 hours postdose; for plasma IFNα levels: male or female
Experimental: (§1) Male and female cynomolgus monkeys were assigned to groups and doses of Compound A were administered. Animals were dosed via subcutaneous injection at a volume of 2 mL/kg. The vehicle control article/diluent was phosphate-buffered saline (PBS).
(§2) IFNα, TNFα, and IL-6 levels were measured at 3, 6, and 12 hours post-dosing. Dose related but variable changes were observed. […] IL-6 increases at 3 mg/kg and 10 mg/kg persisted at 12 hours postdose. TNFα levels increased at 3 hours in the 1 mg/kg group. […] The cytokine responses are consistent with the predicted STING pathway activation. Morbidity was observed within 1 day of administration of the 10 mg/kg/dose; as such, 3 mg/kg was selected as the high dose for the following repeat-dose phase (Phase II).
(§3) In Phase II, 3 weekly administrations of 0.3 mg/kg of Compound A were tolerated. The 3 mg/kg dose in naïve animals was not tolerated and led to clinical observations of morbidity or death within 1 day of dosing. The findings were consistent with Compound A-mediated inflammatory response that was considered the probable cause of death.
(§4) A priming dose of 0.1 mg/kg/day was administered 4 days prior to the first dose of 1.0 mg/kg/day Compound A to potentially allow a tolerance to develop to avoid the acute mortality noted during Phase II following administration of 3.0 mg/kg/day of Compound A to naïve animals. […] Increased plasma levels of IL-6 were noted 3 hours and 6 hours postdose.

[2] = Exposure (Cmax, AUC) of Compound A in cynomolgus monkeys; format: in vivo
Experimental: as §1, §3

[3] = Subcutaneous dose escalation and repeat-dose tolerability study of Compound A in cynomolgus monkeys (priming and maintenance doses); format: in vivo
Experimental: as §1, §2, §3, §4
Edema is consistent with an inflammatory related pathology and the exaggerated pharmacology of the mode of action of Compound A. Administration of 3 weekly doses of 1.0 mg/kg/day (preceded by a priming dose of 0.1 mg/kg) or 0.6 mg/kg (without a priming dose) was tolerated. Animals tolerated an escalation to 3.0 mg/kg in Phase I, due to previous administrations at lower levels that allowed a tolerance to develop.

B16F10 melanoma cells [4] = conditions: intratumorally
Experimental: Groups of C57BL6/J mice (n=5) were implanted subcutaneously with B16F10 melanoma cells into the right flank on day 0. On day 6, 9, 12, and 15, mice were treated intratumorally with anti-CTLA4 antibody or DMXAA, or the combination of both anti-CTLA4 antibody and DMXAA. […] Data are shown as mean±SEM.
Female C57BL6 mice at the age of 7-8 weeks were implanted on day 0 with 10^6 of B16F10 melanoma cells (ATCC CRL-6475) subcutaneously on their right flanks. On day 6, tumors were measured and mice were regrouped so that each group (n=5) had similar average tumor volumes (˜120 mm^3). On day 6, 9, 12, 15, mice were treated intratumorally with 50 μg of anti-CTLA4 antibody (BioXcell, BE0614), or 50 μg of DMXAA (Sigma-Aldrich, D5817), or the combination of both the anti-CTLA4 antibody and DMXAA. Mock treated group were injected with PBS intratumorally. Tumor volumes were measured every 2-3 days and mouse survival was monitored daily.

[5] = alone, I.T., day 6, 10, 14: 0.3 μg Compound A or 50 μg anti-CTLA4 antibody
[6] = combination 0.3 μg Compound A (I.T.) with 10 μg anti-CTLA4 antibody (I.T.)
[7] = combination 0.3 μg Compound A (I.T.) with 50 μg anti-CTLA4 antibody (I.T.)
[8] = Phase I dose escalation, subcutaneous injection
[9] = Phase II, 3 mg/kg dose in naïve animals
[10] = alone, day 6, 9, 12, 15: 50 μg anti-CTLA4 antibody or 50 μg DMXAA
[11] = combination 50 μg anti-CTLA4 antibody and 50 μg DMXAA

Nc1nc2c(ncn2[C@@H]2O[C@@H]3COP(=O)(O)OC4C(O)[C@H](n5cnc6c(N)ncnc65)O[C@@H]4COP(=O)(O)OC2C3OCC(F)(F)F)c(=O)[nH]1 (stereo partly drawn) [Compound A]
mouse survival (B16F10 melanoma cells [1]; [5]): extended mouse survival
tumor growth (B16F10 melanoma cells [1]; [5]): reduced tumor growth
mouse survival compared to both agents alone (B16F10 melanoma cells [1]; [6]): improved mouse survival
tumor growth compared to both agents alone (B16F10 melanoma cells [1]; [6]): further suppressed tumor growth
suppression of tumor growth compared to 0.3 μg Compound A (I.T.) with 200 μg anti-CTLA4 antibody (I.P.) (B16F10 melanoma cells [1]; [7]): more effective
tumor remission (B16F10 melanoma cells [1]; [7]): more dramatic tumor remission
reduction in tumor growth compared to 0.3 μg Compound A (I.T.) with 50 μg anti-CTLA4 antibody (I.T.) (B16F10 melanoma cells [1]; combination 0.3 μg Compound A (I.T.) with 200 μg anti-CTLA4 antibody (I.P.)): inferior
reduction in tumor growth compared to 0.3 μg Compound A (I.T.) with 50 μg anti-CTLA4 antibody (I.T.) (B16F10 melanoma cells [1]; combination 0.3 μg Compound A (I.T.) with 200 μg anti-PD-L1 antibody (I.P.)): inferior
anti-tumor effect compared to 200 μg anti-CTLA4 antibody administered systemically (B16F10 melanoma cells [1]; combination intratumoral Compound A with 10 μg anti-CTLA4 antibody (I.T.)): similar
tumor size and overall survival compared to 200 μg anti-CTLA4 antibody administered systemically (B16F10 melanoma cells [1]; combination intratumoral Compound A with 50 μg anti-CTLA4 antibody (I.T.)): significant benefits
effect on tumor growth compared to 0.3 μg Compound A (I.T.) with 50 μg anti-CTLA4 antibody (I.T.) (B16F10 melanoma cells [1]; triple combination 0.3 μg Compound A (I.T.), 200 μg anti-PD-L1 antibody (I.P.), 200 μg anti-CTLA4 antibody (I.P.)): comparable
IFNα levels (STING pathway; Phase I, 1 mg/kg and 3 mg/kg groups, 3 hours and 6 hours post dosing): Moderate levels
TNFα levels (STING pathway; Phase I, 1 mg/kg group, 3 hours): increased
TNFα levels (STING pathway; Phase I, 3 mg/kg and 10 mg/kg groups): Lower levels
IFNα levels (STING pathway; Phase I, 3 mg/kg and 10 mg/kg, 12 hours after dosing): decreased 12 hours after dosing, but did not return to pre-dose levels
IL-6 increases (STING pathway; Phase I, 3 mg/kg and 10 mg/kg, 12 hours postdose): persisted
IFNα levels (STING pathway; Phase I, 10 mg/kg group): Higher levels
plasma IL-6 levels (STING pathway; Phase I, all groups, 3 and 6 hours post dosing): Increases
IL-12, G-CSF, and IFNγ levels (STING pathway; Phase II): sporadic increases
changes in pro-inflammatory cytokines and chemokines MCP-1 and IP-10 (STING pathway; Phase II): suggestive of an inflammatory response with resolution by 24 hours postdose
plasma IL-1ra, IL-6, and IFNα cytokine levels (STING pathway; Phase II, 3 mg/kg dose level, 3 and 6 hours): dose-dependent increases
plasma levels of IL-6 (STING pathway; Phase III, 0.1 mg/kg/day): Increased
IP-10 (STING pathway; Phase III, 0.1 mg/kg/day, 3 hours post dosing, male and female): Slight elevation
levels of TNFα (STING pathway; Phase III, 0.1 mg/kg/day, 6 hours postdose in male, 3 and 6 hours postdose in female): Elevated levels
TNFα levels (STING pathway; Phase III, 0.1 mg/kg/day, 24 hours post dosing): returned to non-detectable level
IL-6 levels (STING pathway; Phase III, 0.1 mg/kg/day, 24 hours postdose): returned to a non-detectable level
plasma IFNα levels (STING pathway; Phase III, 0.1 mg/kg/day): did not cause significant increase
plasma levels of IL-6 (STING pathway; Phase III, 0.6 mg/kg/day): Increased
levels of TNFα (STING pathway; Phase III, 0.6 mg/kg/day, 6 hours postdose in male, 1.5, 3, and 6 hours postdose in female): Elevated levels
plasma IFNα levels (STING pathway; Phase III, 0.6 mg/kg/day): did not cause significant increase
IP-10 (STING pathway; Phase III, 0.6 mg/kg/day, throughout the time course): No significant elevation
IP-10 level (STING pathway; Phase III, 1 mg/kg/day, 1.5, 3, and 6 hours postdose): no increased IP-10 level
TNFα levels (STING pathway; Phase III, 1 mg/kg/day, 1.5, 3, and 6 hours postdose, male and female): Elevated
IFNα levels (STING pathway; Phase III, 1 mg/kg/day, 1.5 and 3 hours postdose): did not cause significant change
IL-6 levels (STING pathway; Phase III, 1 mg/kg/day, 3 and 6 hours postdose, male and female): Marked increase
IFNα levels (STING pathway; Phase III, 1 mg/kg/day, 6 hours postdose, male and female): elevated levels
increase of exposure (mean Cmax, AUC0-2, AUC0-8, AUC0-24) with dose ([2]; 0.3 to 3 mg/kg/day, Day 1 of Phase II): generally dose-proportional
sex differences in mean Cmax, AUC0-2, AUC0-8, and AUC0-24 values ([2]; male vs female): less than 2 fold
accumulation after multiple doses ([2]; multiple doses of 0.3 mg/kg/day): No accumulation
tolerability ([3]; 3 weekly doses of 0.6 mg/kg without a priming dose): tolerated
tolerability ([3]; 3 weekly doses of 1.0 mg/kg/day preceded by a priming dose of 0.1 mg/kg): tolerated
dose level tolerated on escalation [3, 8]: up to 3.0 mg/kg/dose
findings on escalation up to 3.0 mg/kg/dose [3, 8]: limited to increased body temperature and elevated IFNα, IL-6, and TNFα cytokine levels
time to morbidity after administration ([3]; Phase I, 10 mg/kg/dose): ≤ 1 days
time to morbidity or death after dosing [3, 9]: ≤ 1 days
tolerability [3, 9]: not tolerated
tolerability ([3]; Phase II, 3 weekly administrations of 0.3 mg/kg): tolerated
survival ([3]; Phase III, three weekly doses of 0.6 or 1.0 mg/kg/day (1.0 preceded by priming dose of 0.1 mg/kg/day)): survived until scheduled sacrifice
compound-related findings ([3]; animals administered 0.6 or 1.0 mg/kg/day): limited to a transient body temperature increase and mild to moderate clinical and anatomic pathology findings
dose not tolerated (acute morbidity and/or death, pulmonary edema) ([3]; naïve animals): ≥ 3.0 mg/kg

Cc1ccc2c(=O)c3cccc(CC(=O)O)c3oc2c1C [DMXAA]
mice survival (B16F10 melanoma cells [4]; [10]): prolonged survival
tumor growth (B16F10 melanoma cells [4]; [10]): greatly suppressed tumor growth
controlling tumor growth compared to monotherapy (B16F10 melanoma cells [4]; [11]): significant improved effect
extending survival compared to monotherapy (B16F10 melanoma cells [4]; [11]): significant improved effect
